≈ marks a conversion by molar mass, not a printed value.
What was measured:
Type in all cases: functional
Bacillus subtilis [1] = assay: Antibacterial activity against Bacillus subtilis NCIM 2156 assessed as growth inhibition after 48 hr by NCCLS broth dilution method; details: NCIM 2156, 48 h
Staphylococcus aureus [2] = assay: Antibacterial activity against Staphylococcus aureus NCIM 2079 assessed as growth inhibition after 48 hr by NCCLS broth dilution method; details: NCIM 2079, 48 h
[3] = system: Staphylococcus epidermidis; assay: Antibacterial activity against Staphylococcus epidermidis NCIM 2493 assessed as diameter of growth zone inhibition after 24 hr by disk diffusion method
Bacillus subtilis [4] = assay: Antibacterial activity against Bacillus subtilis NCIM 2156 assessed as diameter of growth zone inhibition after 24 hr by disk diffusion method
Proteus vulgaris [5] = assay: Antibacterial activity against Proteus vulgaris NCIM 2027 assessed as diameter of growth zone inhibition after 24 hr by disk diffusion method
Staphylococcus aureus [6] = assay: Antibacterial activity against Staphylococcus aureus NCIM 2079 assessed as diameter of growth zone inhibition after 24 hr by disk diffusion method
Pseudomonas aeruginosa [7] = assay: Antibacterial activity against Pseudomonas aeruginosa NCIM 2036 assessed as diameter of growth zone inhibition after 24 hr by disk diffusion method
[8] = system: Staphylococcus epidermidis; assay: Antibacterial activity against Staphylococcus epidermidis NCIM 2493 assessed as growth inhibition after 48 hr by NCCLS broth dilution method; details: NCIM 2493, 48 h
Pseudomonas aeruginosa [9] = assay: Antibacterial activity against Pseudomonas aeruginosa NCIM 2036 assessed as growth inhibition after 48 hr by NCCLS broth dilution method; details: NCIM 2036, 48 h
Proteus vulgaris [10] = assay: Antibacterial activity against Proteus vulgaris NCIM 2027 assessed as growth inhibition after 48 hr by NCCLS broth dilution method; details: NCIM 2027, 48 h
Escherichia coli [11] = assay: Antibacterial activity against Escherichia coli NCIM 2065 assessed as growth inhibition after 48 hr by NCCLS broth dilution method; details: NCIM 2065, 48 h
Escherichia coli [12] = assay: Antibacterial activity against Escherichia coli NCIM 2065 assessed as diameter of growth zone inhibition after 24 hr by disk diffusion method

| MIC (Bacillus subtilis [1]) [µg/mL] | MIC (Staphylococcus aureus [2]) [µg/mL] | MIC [8] [µg/mL] | MIC (Pseudomonas aeruginosa [9]) [µg/mL] | MIC (Proteus vulgaris [10]) [µg/mL] | MIC (Escherichia coli [11]) [µg/mL] | Compound | diameter of the inhibition zone (DIZ) [3] [mm] | diameter of the inhibition zone (DIZ) (Bacillus subtilis [4]) [mm] | diameter of the inhibition zone (DIZ) (Proteus vulgaris [5]) [mm] | diameter of the inhibition zone (DIZ) (Staphylococcus aureus [6]) [mm] | diameter of the inhibition zone (DIZ) (Pseudomonas aeruginosa [7]) [mm] | diameter of the inhibition zone (DIZ) (Escherichia coli [12]) [mm] |
| --- | --- | --- | --- | --- | --- | --- | --- | --- | --- | --- | --- | --- |
| 15 (≈ 32.5 µM) | 10 (≈ 21.7 µM) | 10 (≈ 21.7 µM) | 10 (≈ 21.7 µM) | 15 (≈ 32.5 µM) | 10 (≈ 21.7 µM) | Cc1cc(/N=C2\C(=O)Nc3ccc([N+](=O)[O-])cc32)ccc1N1C(=O)c2ccc(Cl)cc2C1=O | 20 | 16 | 11 | 20 | 18 | 22 |
| 15 (≈ 30 µM) | 10 (≈ 20 µM) | 10 (≈ 20 µM) | 10 (≈ 20 µM) | 15 (≈ 30 µM) | 10 (≈ 20 µM) | Cc1cc(/N=C2\C(=O)Nc3ccc(OC(F)(F)F)cc32)ccc1N1C(=O)c2ccc(Cl)cc2C1=O | 18 | 16 | 14 | 18 | 20 | 24 |
| 25 (≈ 58.2 µM) | 10 (≈ 23.3 µM) | 15 (≈ 34.9 µM) | 15 (≈ 34.9 µM) | 20 (≈ 46.5 µM) | 20 (≈ 46.5 µM) | Cc1ccc2c(c1)/C(=N/c1ccc(N3C(=O)c4ccc(Cl)cc4C3=O)c(C)c1)C(=O)N2 | 10 | 12 | 10 | 20 | 16 | 12 |
| 15 (≈ 23.2 µM) | 10 (≈ 15.5 µM) | 10 (≈ 15.5 µM) | 10 (≈ 15.5 µM) | 15 (≈ 23.2 µM) | 10 (≈ 15.5 µM) | Cc1cc(/N=C2\C(=O)N(S(=O)(=O)c3ccc([N+](=O)[O-])cc3)c3ccc([N+](=O)[O-])cc32)ccc1N1C(=O)c2ccc(Cl)cc2C1=O | 20 | 16 | 14 | 18 | 18 | 22 |
| 15 (≈ 27.8 µM) | 15 (≈ 27.8 µM) | 10 (≈ 18.6 µM) | 10 (≈ 18.6 µM) | 15 (≈ 27.8 µM) | 10 (≈ 18.6 µM) | Cc1cc(/N=C2\C(=O)N(S(C)(=O)=O)c3ccc([N+](=O)[O-])cc32)ccc1N1C(=O)c2ccc(Cl)cc2C1=O | 18 | 16 | 14 | 16 | 18 | 24 |
| 10 (≈ 15.8 µM) | 15 (≈ 23.7 µM) | 15 (≈ 23.7 µM) | 15 (≈ 23.7 µM) | 10 (≈ 15.8 µM) | 10 (≈ 15.8 µM) | Cc1cc(/N=C2\C(=O)N(S(=O)(=O)C(F)(F)F)c3ccc(OC(F)(F)F)cc32)ccc1N1C(=O)c2ccc(Cl)cc2C1=O | 10 | 20 | 20 | 18 | 12 | 23 |
| 15 (≈ 26 µM) | 15 (≈ 26 µM) | 10 (≈ 17.3 µM) | 15 (≈ 26 µM) | 15 (≈ 26 µM) | 10 (≈ 17.3 µM) | Cc1cc(/N=C2\C(=O)N(S(C)(=O)=O)c3ccc(OC(F)(F)F)cc32)ccc1N1C(=O)c2ccc(Cl)cc2C1=O | 18 | 18 | 16 | 16 | 14 | 22 |
| 15 (≈ 21.9 µM) | 10 (≈ 14.6 µM) | 10 (≈ 14.6 µM) | 10 (≈ 14.6 µM) | 10 (≈ 14.6 µM) | 10 (≈ 14.6 µM) | Cc1cc(/N=C2\C(=O)N(S(=O)(=O)c3ccc([N+](=O)[O-])cc3)c3ccc(OC(F)(F)F)cc32)ccc1N1C(=O)c2ccc(Cl)cc2C1=O | 18 | 14 | 22 | 20 | 18 | 20 |
| 25 (≈ 45.4 µM) | 30 (≈ 54.5 µM) | 15 (≈ 27.2 µM) | 15 (≈ 27.2 µM) | 15 (≈ 27.2 µM) | 15 (≈ 27.2 µM) | Cc1cc(/N=C2\C(=O)N(Cc3ccccc3)c3ccc([N+](=O)[O-])cc32)ccc1N1C(=O)c2ccc(Cl)cc2C1=O | 10 | 10 | 14 | 12 | 14 | 16 |
| 30 (≈ 60.1 µM) | 25 (≈ 50.1 µM) | 20 (≈ 40.1 µM) | 15 (≈ 30.1 µM) | 20 (≈ 40.1 µM) | 15 (≈ 30.1 µM) | C#CCN1C(=O)/C(=N\c2ccc(N3C(=O)c4ccc(Cl)cc4C3=O)c(C)c2)c2cc([N+](=O)[O-])ccc21 | 8 | 8 | 10 | 13 | 14 | 18 |
| 30 (≈ 59.7 µM) | 30 (≈ 59.7 µM) | 15 (≈ 29.8 µM) | 20 (≈ 39.8 µM) | 20 (≈ 39.8 µM) | 20 (≈ 39.8 µM) | CCCN1C(=O)/C(=N\c2ccc(N3C(=O)c4ccc(Cl)cc4C3=O)c(C)c2)c2cc([N+](=O)[O-])ccc21 | 12 | 10 | 12 | 10 | 10 | 12 |
| 25 (≈ 46.5 µM) | 30 (≈ 55.8 µM) | 15 (≈ 27.9 µM) | 15 (≈ 27.9 µM) | 15 (≈ 27.9 µM) | 20 (≈ 37.2 µM) | C#CCN1C(=O)/C(=N\c2ccc(N3C(=O)c4ccc(Cl)cc4C3=O)c(C)c2)c2cc(OC(F)(F)F)ccc21 | 10 | 11 | 14 | 10 | 12 | 10 |
| 25 (≈ 42.4 µM) | 25 (≈ 42.4 µM) | 20 (≈ 33.9 µM) | 20 (≈ 33.9 µM) | 20 (≈ 33.9 µM) | 15 (≈ 25.4 µM) | Cc1cc(/N=C2\C(=O)N(Cc3ccccc3)c3ccc(OC(F)(F)F)cc32)ccc1N1C(=O)c2ccc(Cl)cc2C1=O | 8 | 12 | 12 | 14 | 10 | 17 |

| Compound | MIC (Bacillus subtilis [1]) [µg/mL] | MIC (Staphylococcus aureus [2]) [µg/mL] | MIC [8] [µg/mL] | MIC (Pseudomonas aeruginosa [9]) [µg/mL] | MIC (Proteus vulgaris [10]) [µg/mL] | MIC (Escherichia coli [11]) [µg/mL] | diameter of the inhibition zone (DIZ) [3] [mm] | diameter of the inhibition zone (DIZ) (Bacillus subtilis [4]) [mm] | diameter of the inhibition zone (DIZ) (Proteus vulgaris [5]) [mm] | diameter of the inhibition zone (DIZ) (Staphylococcus aureus [6]) [mm] | diameter of the inhibition zone (DIZ) (Pseudomonas aeruginosa [7]) [mm] | diameter of the inhibition zone (DIZ) (Escherichia coli [12]) [mm] |
| --- | --- | --- | --- | --- | --- | --- | --- | --- | --- | --- | --- | --- |
| O=C(O)c1cn(C2CC2)c2cc(N3CCNCC3)c(F)cc2c1=O [CIPROFLOXACIN] | 10 (≈ 30.2 µM) | 10 (≈ 30.2 µM) | 10 (≈ 30.2 µM) | 10 (≈ 30.2 µM) | 10 (≈ 30.2 µM) | – | 28 | 22 | 28 | 26 | 24 | 30 |

Reference: ChEMBL document CHEMBL3045563, “Synthesis and in vitro antibacterial activity of schiff bases of N-substituted isatins as effective scaffolds” (2013)
